According to US10202343B2, “MIF modulators” (YALE UNIVERSITY, priority 2008, dated 2019):
Where two headings read alike, the source gives them in different places.

Experiments:
[1] = target: T1, Human MIF (MIF tautomerase activity) (Homo sapiens, UniProt P14174); assay: HPP tautomerase assay; format: biochemical; conditions: for IC50: read-out: HPP IC50
T1 construct: made in house
T1 sequence (P14174 2-115 limits assumed): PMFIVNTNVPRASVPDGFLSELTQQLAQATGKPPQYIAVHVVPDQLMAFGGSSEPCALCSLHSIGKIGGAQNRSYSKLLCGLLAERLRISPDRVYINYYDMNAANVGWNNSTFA
Procedure: The HPP assay used was adapted to the microtiter plate format. […] Dilutions of the enzyme were prepared in 50 mM sodium phosphate buffer, 1 mM EDTA, pH 6.5. HPP was obtained from Aldrich. A stock solution of 60 mM HPP in ethanol is prepared and kept for maximally 4 hours on ice. The working solution (600 μM) of the substrate was prepared by diluting an aliquot of the stock solution with 50 mM sodium phosphate buffer, 1 mM EDTA, pH 6.5. […] Inhibitor and enzyme solutions were pipetted manually using an Eppendorf 12-channel pipette. Addition of substrate to start the reaction was performed with an Igel 96 pipetting station (OpalJena, Jena, Germany), which allows simultaneous addition of fluid to all 96 wells of the plates. Optical density (OD) was determined using a SPECTRAmax 250 reader (Molecular Devices). The reader was operated with the SoftmaxPro 2.6.1 software. Assay: Three wells of the microtiter plates were filled with buffer only, to allow for blanking. […] The last step was performed using the 96-channel pipetting device. The plate was then immediately (i.e. within a few seconds) transferred manually to the SPECTRAmax 250 reader and the optical density was determined (310 nm). From the data obtained, IC50 values were calculated using Excel® and XLfit® software.

[2] = target: T2, MIF-CD74 Binding (biotin-labeled recombinant human MIF, recombinant human MIF receptor CD74 ectodomain) (Homo sapiens, UniProt P14174); assay: MIF-CD74 binding (capture) assay; conditions: for CD74 % MaxInhib: number before @; for Capture IC50 / Capture % Max. Inhib.: Table 3
T2 sequence (P14174 2-115 limits assumed): T1 sequence (P14174 2-115 limits assumed)
Procedure: The biologically more significant assay is a “capture” assay using immobilized, recombinant MIF receptor ectodomain and biotinylated recombinant MIF (Leng, L., et al. (2003), MIF signal transduction initiated by binding to CD74. J. Exp. Med. 197, 1467-1476). This allows measurement of the inhibition or enhancement of the binding of MIF to its receptor induced by an addend.
Coat 96 well plates with 60 μl/well of 26 ng/μl purified, recombinant human MIF receptor (CD74 ectodomain or CD74^73-232). Incubate at 4° C. overnight. Wash the plate 4 times with 250 μl/well TTBS and add 100 μl/well of superblock (Pierce, Ill.). Incubate at 4° C. overnight. Remove the superblock and add mixture of compound and biotin-labeled recombinant human MIF incubated at 4° C. overnight. (Each compound was pre-incubated at various concentrations with 2 ng/μl 0.2 μM biotin-MIF for 2 hours at room temperature in the dark). After washing the plate 4 times with 250 μl/well TTBS, 60 μl/well of Strepavidin-AP (R&D Systems) was added and incubated for 1 hr at room temperature in the dark. Wells were then washed as before and 60 μl/well of PNPP (Sigma) was added, allowing the color to develop in the dark at room temperature and then read at OD405 nm.

[3] = Table 2, read-out: MIF-CD74 IC50

For `Cc1ccc2c(c1)oc(=O)n2Cc1ccccc1` [Compound 2, 3-benzyl-6-methyl-3H-benzooxazol-2-one], the IC50 ([1]; Table 1) was 3.4 µM, the “concentration of CD74 % MaxInhib (number after @)” value (“concentration of CD74 % MaxInhib” below) ([2]; Table 4) was 1.87 µM and the “CD74 % MaxInhib” value ([2]; Table 4) was 25%.

With `COc1cccc(Cn2c(=O)oc3ccc(OC)cc32)c1` [Compound 3, 5-methoxy-3-(3-methoxy-benzyl)-3H-benzooxazol-2-one] the “concentration of HPP Max Inhib (number after @)” value ([1]; Table 4) was > 500 µM, the “HPP Max Inhib” value ([1]; Table 4, number before @) was 41% and the “concentration of CD74 % MaxInhib” value ([2]; Table 4) was 1.87 µM.

`COc1cccc(Cn2c(=O)oc3ccc(CO)cc32)c1` [Compound 4, 5-hydroxymethyl-3-(3-methoxy-benzyl)-3H-benzooxazol-2-one] was tested, and the “HPP Max Inhib” value ([1]; Table 1) was 44%, the “concentration of HPP Max Inhib (number after @)” value ([1]; Table 4) was 200 µM and the “concentration of CD74 % MaxInhib” value ([2]; Table 4) was 0.039 µM. The “CD74 % MaxInhib” value ([2]; Table 4) was 27%.

`COc1cccc(Cn2c(=O)oc3ccc(C)cc32)c1` [Compound 5] was tested, and the IC50 ([1]; Table 1) was 2.9 µM, the “concentration of CD74 % MaxInhib” value ([2]; Table 4) was 1.87 µM and the “CD74 % MaxInhib” value ([2]; Table 4) was 42%.

In the case of `COc1ccccc1Cn1c(=O)oc2ccc(F)cc21` [Compound 10], the “concentration of CD74 % MaxInhib” value ([2]; Table 4) is reported as 0.039 µM.

With `O=c1oc2cc(O)ccc2n1Cc1ccccc1` [Compound 14] the “HPP Max Inhib” value ([1]; Table 1) was 28%, the “concentration of HPP Max Inhib (number after @)” value ([1]; Table 4) was 5 µM and the “concentration of CD74 % MaxInhib” value ([2]; Table 4) was 0.039 µM. For the same compound, the “CD74 % MaxInhib” value ([2]; Table 4) was 22%.

For `c1ccc(Cn2c(-c3cscn3)nc3ccccc32)cc1` [Compound 17, 4-(1-benzyl-1H-benzo[d]imidazol-2-yl)thiazole], the “concentration of HPP Max Inhib (number after 'at')” value ([1]; Table 5) was 5 µM, the “concentration of CD74 % MaxInhib” value ([2]; Table 5) was 0.039 µM and the IC50 ([2]; Table 5, read-out: CD74 IC50) was > 1000 µM.

With `N#Cc1nc2ccccc2n1Cc1ccccc1` [Compound 18, 1-Benzyl-1H-benzoimidazole-2-carbonitrile] the “concentration of CD74 % MaxInhib” value ([2]; Table 5) was 0.078 µM.

In the case of `c1ccc(Cn2c(Cc3ccccn3)nc3ccccc32)cc1` [Compound 19], the “HPP Max. Inhib.” value ([1]; Table 2) is reported as 38%, the “concentration of CD74 % MaxInhib” value ([2]; Table 5) is reported as 1.87 µM and the “CD74 % MaxInhib” value ([2]; Table 5) is reported as 40%.

In the case of `O=C(c1cc2ccccc2o1)c1cc2ccccc2o1` [Compound 20, bisbenzofuran-2-yl methanone], the “concentration of CD74 % MaxInhib” value ([2]; Table 13) is reported as 0.058 µM.

`O=C(c1cc2ccccc2o1)N1CCc2ccccc21` [Compound 21] was tested, and the IC50 ([1]; Table 5) was 3 µM, the IC50 [2, 3] was 4 µM and the IC50 ([2]; Table 5, read-out: CD74 IC50) was 4 µM. It also gave an IC50 ([2]; Table 14, read-out: CD74 IC50) of 4 µM.

`CC(=O)Oc1ccc2nc(-c3cc4ccccc4o3)oc(=O)c2c1` [Compound 22] was tested, and the IC50 ([1]; Table 15) was 730 µM, the IC50 [2, 3] was 2.5 µM and the IC50 ([2]; Table 5, read-out: CD74 IC50) was 2.5 µM. For the same compound, the IC50 ([2]; Table 15, read-out: CD74 IC50) was 2.5 µM.

`O=C(O)COc1ccc2occ(C(=O)c3ccccc3)c2c1` [Compound 23] showed an IC50 [2, 3] of 1500 µM, an IC50 ([2]; Table 5, read-out: CD74 IC50) of 1500 µM and an IC50 ([2]; Table 16, read-out: CD74 IC50) of 1500 µM.

`c1ccc(COc2ccc3cc(-c4cc[nH]c4)[nH]c3c2)cc1` [Compound 24] gave an IC50 [2, 3] of 5000 µM, an IC50 ([2]; Table 5, read-out: CD74 IC50) of 5000 µM and an IC50 ([2]; Table 22, read-out: CD74 IC50) of 5000 µM.

In the case of `O=c1c2ccc(F)cc2sn1-c1ccc(Cl)cc1` [Compound 25], the IC50 ([1]; Table 2) is reported as 4.2 µM, the “activity in the capture assay” value [2] is reported as “agonist behavior” and the “MIF-CD74 IC50” value ([2]; Table 2) is reported as “agonist”. The “CD74 IC50” value ([2]; Table 5) was “agonist”.

For `O=c1c2ccc(F)cc2sn1-c1ccc(Cl)cc1` [Compound 26], the IC50 ([1]; Table 3) was 4.2 µM, the IC50 ([1]; Table 6, data cell c7) was 4.2 µM and the “Capture IC50” value [2] was “agonist”. The “CD74 IC50” value ([2]; Table 6, data cell c9) was “agonist”.

For `COc1ccc(-n2sc3cc(F)ccc3c2=O)cc1` [Compound 27], the IC50 ([1]; Table 3) was 6.2 µM.

With `COc1cccc(-n2sc3cc(F)ccc3c2=O)c1` [Compound 28] the IC50 ([1]; Table 3) was 25 µM and the IC50 ([1]; Table 6, data cell c7) was 25 µM.

`O=c1c2ccc(F)cc2sn1-c1cccc(CO)c1` [Compound 29] was tested, and the “Capture % Max. Inhib.” value [2] was 8% and the “CD74 % MaxInhib” value ([2]; Table 6, data cell c8) was 8%.

In the case of `O=c1c2cc(F)ccc2sn1-c1ccc(Cl)cc1` [Compound 30], the “Capture % Max. Inhib.” value [2] is reported as 7% and the “CD74 % MaxInhib” value ([2]; Table 6, data cell c8) is reported as 7%.

For `COc1ccccc1-n1sc2ccc(Cl)cc2c1=O` [Compound 31], the IC50 ([1]; Table 3) was 6.6 µM, the IC50 ([1]; Table 6, data cell c7) was 6.6 µM and the “Capture % Max. Inhib.” value [2] was 7%. For the same compound, the “CD74 % MaxInhib” value ([2]; Table 6, data cell c8) was 7%.

In the case of `O=c1c2cc(F)ccc2sn1-c1cccc(O)c1` [Compound 32], the IC50 ([1]; Table 3) is reported as 5.9 µM, the IC50 ([1]; Table 6, data cell c7) is reported as 5.9 µM and the “Capture % Max. Inhib.” value [2] is reported as 13%. The “CD74 % MaxInhib” value ([2]; Table 6, data cell c8) was 13%.

With `CC(=O)OCc1cccc(-n2sc3cc(F)ccc3c2=O)c1` [Compound 33] the IC50 ([1]; Table 3) was 2.3 µM, the IC50 ([1]; Table 6, data cell c7) was 2.3 µM and the “Capture % Max. Inhib.” value [2] was 12%. The “CD74 % MaxInhib” value ([2]; Table 6, data cell c8) was 12%.

`O=c1c2cc([N+](=O)[O-])ccc2sn1-c1ccc(Cl)cc1` [Compound 34] was tested, and the IC50 ([1]; Table 3) was 6.2 µM, the IC50 ([1]; Table 6, data cell c7) was 6.2 µM and the “Capture % Max. Inhib.” value [2] was 11%. For the same compound, the “CD74 % MaxInhib” value ([2]; Table 6, data cell c8) was 11%.

In the case of `O=c1c2cc(C(F)(F)F)ccc2sn1-c1ccc(Cl)cc1` [Compound 35], the “Capture % Max. Inhib.” value [2] is reported as 12% and the “CD74 % MaxInhib” value ([2]; Table 6, data cell c8) is reported as 12%.

With `O=c1c2ccc(Br)cc2sn1-c1ccc(Cl)cc1` [Compound 36] the IC50 ([1]; Table 3) was 11 µM, the IC50 ([1]; Table 6, data cell c7) was 11 µM and the “Capture % Max. Inhib.” value [2] was 10%. The “CD74 % MaxInhib” value ([2]; Table 6, data cell c8) was 10%.

In the case of `COc1cccc(-n2sc3ccc(F)cc3c2=O)c1` [Compound 38], the IC50 ([1]; Table 3) is reported as 8 µM, the IC50 ([1]; Table 6, data cell c7, listed as MIF-113) is reported as 8 µM and the “Capture IC50” value [2] is reported as “agonist”. For the same compound, the “CD74 IC50” value ([2]; Table 6, data cell c9) was “agonist”.

`O=c1c2cc(Br)ccc2sn1-c1ccc(Cl)cc1` [Compound 39] gave an IC50 ([1]; Table 3) of 7.9 µM and an IC50 ([1]; Table 6, data cell c7) of 7.9 µM.

In the case of `N#Cc1ccc2sn(-c3ccc(Cl)cc3)c(=O)c2c1` [Compound 40], the IC50 ([1]; Table 3) is reported as 19 µM, the IC50 ([1]; Table 6, data cell c7) is reported as 19 µM and the “Capture IC50” value [2] is reported as “agonist”. The “CD74 IC50” value ([2]; Table 6, data cell c9) was “agonist”.
